{
  "source": "patent US7115657B2",
  "about": "“Bifunctional agents possessing antioxidant and antiarrhythmic activity” (Uni-Pharma Kleon Tsetis Pharmaceutical Laboratories S.A., priority 2000, dated 2006)",
  "key": {"[1]": {"test_system": "microsomal lipid peroxidation", "test": "in vitro lipid peroxidation, heat-inactivated hepatic microsomal fraction, Fe2+/ascorbate, TBA reactive material", "format": "biochemical, Fischer rats", "experimental": "The antioxidant activity of the new compounds was initially evaluated as set forth below. in vitro lipid peroxidation (Bationi J. P., Fontecave M., Jaouen M., Mansuy D. “Vitamin E derivatives as new potent inhibitors of microsomal lipid peroxidation” Biochem. Biophys. Res. Com. 1991, 174, 1103)\nFor these experiments, heat-inactivated hepatic microsomal fraction from untreated Fischer rats (200–220 g), corresponding to 0.125 g liver/ml final volume, was used. The incubation mixture contained the microsomal fraction, ascorbic acid (0.2 mM), in Tris buffer (50 mM, pH 7.4) and various concentrations (5 μM–1 mM) of the examined compounds dissolved in DMSO. The lipid peroxidation reaction was initiated with the addition of a freshly prepared FeSO4 solution (10 μM) and aliquots were taken at various time intervals for 45 min. Lipid peroxidation was estimated spectroscopically (535 nm vs. 600 nm) as 2-thiobarbitouric acid (TBA) reactive material. Each experiment was performed at least in triplicate.\nThe effect of various concentrations of representative compounds of the present invention on lipid peroxidation is shown in Table 1. […] However, there are quantitative differences that appear to be connected with the position of the amide substituent and the length of the side chain."}, "[2]": {"test_system": "isolated heart preparations", "test": "antiarrhythmic activity on isolated heart preparations, Krebs perfused Langerdorff model of ischemia and reperfusion", "design": "species or system Male Wistar rats; unit not given here", "conditions": "drug present during last 5 min of ischemia and during reperfusion, control (no drug) 12 ± 4", "experimental": "The evaluation of the antiarrhythmic activity of the compounds set forth above was carried out on isolated heart preparations using the Krebs perfused Langerdorff model (Heisier B. E., Ferrier G. R. “Proarrhythmic actions of flecainide in an isolated tissue model of ischemia and reperfusion” J. Pharmacol. Exp. Ther. 1996, 279, 317). Male Wistar rats, 250–300 g, were anesthetized with pentobarbitone (15 mg/rat=5 mg/100 g body weight) and heparinized (1000 IU)\nHearts were excised and washed in ice cold modified Krebs-Henseleit (KHB) buffer of the following composition in Mm: NaCl 118, KCl 4.7, NaHCO3 25, KH2PO4 1.2, MgSO4 1.4, CaCl2 2.5, Glucose 11. Hearts were mounted on a Langerdorff apparatus, perfused at a pressure 100 mmHg, at 37° C., with KHB (9 ml/min) for 30–40 min and then the “ischemic” KHB solution was applied for 15 min (this solution is a KH buffer in which the glucose is substituted by Tris HCl. The hearts were then perfused with normal KHB for 30 min. Drugs were present during the last 5 min of ischemia and during reperfusion at the final concentration of 30 or 100 μM.\nElectrocardiograms were recorded during equilibration, ischemia and reperfusion.\nThe most important arrhythmias seem to occur during early reperfusion (Li G-R., Ferrier G. R. “Effects of lidocaine on reperfusion arrhythmias and electrophysiological properties in an isolated ventricular muscle model of ischemia and reperfusion” J. Pharmacol. Exp. Ther. 1991, 257, 997)."}},
  "data": [
    {"molecule": "CCN(CC)CCNC(=O)C1(C)CCc2c(C)c(O)c(C)c(C)c2O1", "note": "(stereo not shown) [Compound a, N-(3,4-dihydro-6-hydroxy-2,5,7,8-tetramethyl-2H-1-benzopyran-2-carbonyl)-N′,N′-diethyl Ethylenediamine]", "values": [
      {"measurement": "% Inhibition", "setting": "[1]; compound concentration 10 μM", "result": 96.3, "unit": "%"},
      {"measurement": "Incidence of arrhythmias during the reperfusion period", "setting": "[2]; 30 μM", "result": "7 ± 3.5"},
      {"measurement": "Incidence of arrhythmias during the reperfusion period", "setting": "[2]; 100 μM", "result": "5 ± 2"}
    ]},
    {"molecule": "Cc1c(C)c2c(c(C)c1O)CCC(C)(C(=O)O)O2", "note": "(stereo not shown) [Trolox, reference compound]", "values": [
      {"measurement": "% Inhibition", "setting": "[1]; compound concentration 10 μM", "result": 49, "unit": "%"}
    ]},
    {"molecule": "CCCCCCC1(C(=O)NCCN(CC)CC)CCc2c(C)c(O)c(C)c(C)c2O1", "note": "(stereo not shown) [b, N-(3,4-dihydro-2-hexyl-6-hydroxy-5,7,8-trimethyl-2H-1-benzopyran-2-carbonyl)-N′,N′-diethyl Ethylenediamine]", "values": [
      {"measurement": "% Inhibition", "setting": "[1]; compound concentration 10 μM", "result": 7.7, "unit": "%"},
      {"measurement": "% Inhibition", "setting": "[1]; compound concentration 50 μM", "result": 91, "unit": "%"}
    ]},
    {"molecule": "CCCCCCCCCCCCC1(C(=O)NCCN(CC)CC)CCc2c(C)c(O)c(C)c(C)c2O1", "note": "(stereo not shown) [c, N-(3,4-dihydro-2-dodecyl-6-hydroxy-5,7,8-trimethyl-2H-1-benzopyran-2-carbonyl)-N′,N′-diethyl Ethylenediamine]", "values": [
      {"measurement": "% Inhibition", "setting": "[1]; compound concentration 200 μM", "result": 0, "unit": "%"},
      {"measurement": "% Inhibition", "setting": "[1]; compound concentration 400 μM", "result": 48.6, "unit": "%"},
      {"measurement": "% Inhibition", "setting": "[1]; compound concentration 500 μM", "result": 93.8, "unit": "%"}
    ]},
    {"molecule": "CCN(CC)CCNC(=O)c1c(O)c(C)c(C)c2c1CCC(C)(C)O2", "note": "[d, N-(3,4-dihydro-6-hydroxy-2,2,7,8-tetramethyl-2H-1-benzopyran-5-carbonyl)-N′,N′-diethyl Ethylenediamine]", "values": [
      {"measurement": "% Inhibition", "setting": "[1]; compound concentration 10 μM", "result": 38.4, "unit": "%"},
      {"measurement": "% Inhibition", "setting": "[1]; compound concentration 50 μM", "result": 98.1, "unit": "%"}
    ]},
    {"molecule": "CCCCCCC1(C)CCc2c(c(C)c(C)c(O)c2C(=O)NCCN(CC)CC)O1", "note": "(stereo not shown) [e, N-(3,4-dihydro-2-hexyl-6-hydroxy-2,7,8-trimethyl-2H-1-benzopyran-5-carbonyl)-N′,N′-diethyl Ethylenediamine]", "values": [
      {"measurement": "% Inhibition", "setting": "[1]; compound concentration 50 μM", "result": 87.4, "unit": "%"}
    ]},
    {"molecule": "CCCCCCCCCCCCC1(C)CCc2c(c(C)c(C)c(O)c2C(=O)NCCN(CC)CC)O1", "note": "(stereo not shown) [f, N-(3,4-dihydro-2-dodecyl-6-hydroxy-2,7,8-trimethyl-2H-1-benzopyran-5-carbonyl)-N′,N′-diethyl Ethylenediamine]", "values": [
      {"measurement": "% Inhibition", "setting": "[1]; compound concentration 50 μM", "result": 0, "unit": "%"},
      {"measurement": "% Inhibition", "setting": "[1]; compound concentration 1000 μM", "result": 100, "unit": "%"}
    ]},
    {"molecule": "CCN(CC)CC(=O)Nc1c(O)c(C)c(C)c2c1CCC(C)(C)O2", "note": "[g, N-(3,4-dihydro-6-hydroxy-2,2,7,8-tetramethyl-2H-1-benzopyran-5-yl)-(diethylamino)acetamide]", "values": [
      {"measurement": "% Inhibition", "setting": "[1]; compound concentration 5 μM", "result": 72.4, "unit": "%"},
      {"measurement": "% Inhibition", "setting": "[1]; compound concentration 10 μM", "result": 100, "unit": "%"},
      {"measurement": "Incidence of arrhythmias during the reperfusion period", "setting": "[2]; 30 μM", "result": "8 ± 2.1"},
      {"measurement": "Incidence of arrhythmias during the reperfusion period", "setting": "[2]; 100 μM", "result": "7 ± 2"}
    ]},
    {"molecule": "CCCCCCC1(C)CCc2c(NC(=O)CN(CC)CC)c(O)c(C)c(C)c2O1", "note": "(stereo not shown) [h, N-(3,4-dihydro-2-hexyl-6-hydroxy-2,7,8-trimethyl-2H-1-benzopyran-5-yl)-(diethylamino)acetamide]", "values": [
      {"measurement": "% Inhibition", "setting": "[1]; compound concentration 5 μM", "result": 17.4, "unit": "%"},
      {"measurement": "% Inhibition", "setting": "[1]; compound concentration 10 μM", "result": 100, "unit": "%"},
      {"measurement": "Incidence of arrhythmias during the reperfusion period", "setting": "[2]; 30 μM", "result": "6 ± 3"},
      {"measurement": "Incidence of arrhythmias during the reperfusion period", "setting": "[2]; 100 μM", "result": "6 ± 2.5"}
    ]},
    {"molecule": "CCN(CC)CC(=O)NC1CC(C)(C)Oc2c(C)c(C)c(O)c(C)c21", "note": "(stereo not shown) [i, N-(3,4-dihydro-6-hydroxy-2,2,5,7,8-pentamethyl-2H-1-benzopyran-4-yl)-(diethylamino)acetamide]", "values": [
      {"measurement": "% Inhibition", "setting": "[1]; compound concentration 50 μM", "result": 98.6, "unit": "%"}
    ]},
    {"molecule": "CCCCCCC1(C)CC(NC(=O)CN(CC)CC)c2c(C)c(O)c(C)c(C)c2O1", "note": "(stereo not shown) [j, N-(3,4-dihydro-2-hexyl-6-hydroxy-2,5,7,8-tetramethyl-2H-1-benzopyran-4-yl)-(diethylamino)acetamide]", "values": [
      {"measurement": "% Inhibition", "setting": "[1]; compound concentration 50 μM", "result": 96.1, "unit": "%"}
    ]},
    {"molecule": "Vitamin E [reference compound]", "values": [
      {"measurement": "% Inhibition", "setting": "[1]; compound concentration 10 μM", "result": 21, "unit": "%"}
    ]}
  ]
}
